Test results published in DBAASP.
Values after ≈ are worked out from the molar mass of the structure shown. Values joined by “and” are separate entries in the source; they are usually repeats but may differ in a detail not shown here. Equal entries are not always repeated. Values belong to the molecule of their own block, whether it stands above or below them.

Columns and labels:
Test in all cases: ≥ marks a high value that may be exact or a test limit, other limits are often not marked, values filed in µg/mL are converted to µM
[1] = tested on: Staphylococcus aureus ATCC 43300
[2] = tested on: Escherichia coli ATCC 25922
[3] = tested on: Staphylococcus aureus ATCC 29213
[4] = tested on: Pseudomonas aeruginosa ATCC 27853
[5] = tested on: Candida albicans ATCC 90028
[6] = tested on: Staphylococcus epidermidis ATCC 12228
[7] = tested on: Klebsiella pneumoniae ATCC 700603
[8] = tested on: Escherichia coli
[9] = tested on: Pseudomonas aeruginosa
[10] = tested on: Staphylococcus aureus
[11] = tested on: Escherichia coli UB1005
[12] = tested on: Staphylococcus aureus ATCC 25923
[13] = tested on: Pseudomonas aeruginosa PAO1

Structure (SMILES): CC(C)C[C@H](NC(=O)[C@H](CCCCN)NC(=O)[C@H](C)N)C(=O)N[C@@H](Cc1c[nH]c2ccccc12)C(=O)N[C@@H](CC(C)C)C(=O)N[C@@H](CCCCN)C(=O)N[C@@H](C)C(=O)N[C@@H](C)C(=O)N[C@@H](CCCCN)C(=O)N[C@@H](CC(C)C)C(=O)N[C@@H](Cc1c[nH]c2ccccc12)C(=O)N[C@@H](CC(C)C)C(=O)N[C@@H](CCCCN)C(=O)N[C@@H](C)C(N)=O [AKLWLKAAKLWLKA]
MIC [1]: 16 µM (≈ 26.2 µg/mL)

Structure (SMILES): CC[C@H](C)[C@H](NC(=O)[C@H](CCCN=C(N)N)NC(=O)[C@H](CCC(N)=O)NC(=O)[C@@H](NC(=O)[C@@H](NC(=O)[C@H](CCCN=C(N)N)NC(=O)[C@H](C)N)[C@@H](C)CC)C(C)C)C(=O)N[C@@H](CCCCN)C(=O)N[C@@H](CC(=O)O)C(=O)N[C@@H](Cc1ccccc1)C(=O)N[C@@H](CC(C)C)C(=O)N[C@@H](CCCN=C(N)N)C(=O)O [ARIVQRIKDFLR]
MIC [2]: 40 µM (≈ 60.6 µg/mL)
MIC [3]: 40 µM (≈ 60.6 µg/mL)
MIC [4]: 40 µM (≈ 60.6 µg/mL)
MIC [5]: ≥ 40 µM

Structure (SMILES): CC(C)C[C@H](NC(=O)[C@H](CCCCN)NC(=O)CN)C(=O)N[C@@H](Cc1c[nH]c2ccccc12)C(=O)N[C@@H](CC(C)C)C(=O)N[C@@H](CCCCN)C(=O)NCC(=O)NCC(=O)N[C@@H](CCCCN)C(=O)N[C@@H](CC(C)C)C(=O)N[C@@H](Cc1c[nH]c2ccccc12)C(=O)N[C@@H](CC(C)C)C(=O)N[C@@H](CCCCN)C(=O)NCC(=O)NCC(=O)N[C@@H](CCCCN)C(=O)N[C@@H](CC(C)C)C(=O)N[C@@H](Cc1c[nH]c2ccccc12)C(=O)N[C@@H](CC(C)C)C(=O)N[C@@H](CCCCN)C(=O)NCC(N)=O [GKLWLKGGKLWLKGGKLWLKG]
MIC [1]: 32 µM (≈ 75.7 µg/mL)

Structure (SMILES): CC[C@H](C)[C@H](N)C(=O)N[C@@H](CC(N)=O)C(=O)N[C@@H](Cc1c[nH]c2ccccc12)C(=O)N[C@@H](CCCCN)C(=O)N[C@@H](CCCCN)C(=O)N[C@H](C(=O)N[C@@H](Cc1ccccc1)C(=O)N[C@@H](CCC(=O)O)C(=O)N[C@@H](CCCCN)C(=O)N[C@H](C(=O)N[C@@H](CCCCN)C(=O)N[C@@H](CC(N)=O)C(=O)N[C@@H](CC(C)C)C(=O)N[C@H](C(N)=O)C(C)C)C(C)C)[C@@H](C)CC [INWKKIFEKVKNLV]
MIC [8]: 7.5 µM and 6.25 µM and 3.12 µM
MIC [9]: 86.6 µM (≈ 152 µg/mL)
MIC [10]: 11.8 µM (≈ 20.7 µg/mL)

Structure (SMILES): CC[C@H](C)[C@H](N)C(=O)N[C@@H](Cc1c[nH]c2ccccc12)C(=O)N[C@@H](CCCN=C(N)N)C(=O)N[C@H](C(=O)N[C@@H](Cc1ccccc1)C(=O)N[C@@H](CCCN=C(N)N)C(=O)N[C@@H](CCCN=C(N)N)C(=O)N[C@H](C(=O)N[C@@H](Cc1ccccc1)C(=O)N[C@@H](CCCN=C(N)N)C(=O)N[C@H](C(=O)N[C@@H](Cc1ccccc1)C(=O)N[C@H](C(=O)N[C@@H](CCCN=C(N)N)C(=O)N[C@@H](Cc1ccccc1)C(N)=O)[C@@H](C)CC)[C@@H](C)CC)[C@@H](C)CC)[C@@H](C)CC [IWRIFRRIFRIFIRF]
MIC [2]: 16 µM (≈ 34.2 µg/mL)
MIC [3]: 8 µM (≈ 17.1 µg/mL)
MIC [4]: 16 µM (≈ 34.2 µg/mL)
MIC [6]: 4 µM (≈ 8.55 µg/mL)

Structure (SMILES): CC[C@H](C)[C@H](NC(=O)[C@H](C)NC(=O)[C@H](CCC(N)=O)NC(=O)[C@@H](NC(=O)[C@@H](NC(=O)[C@H](CCCN=C(N)N)NC(=O)[C@@H](N)CCCCN)[C@@H](C)CC)C(C)C)C(=O)N[C@@H](CCCCN)C(=O)N[C@@H](CC(=O)O)C(=O)N[C@@H](Cc1ccccc1)C(=O)N[C@@H](CC(C)C)C(=O)N[C@@H](CCCN=C(N)N)C(=O)O [KRIVQAIKDFLR]
MIC [2]: 40 µM (≈ 59.5 µg/mL)
MIC [3]: 40 µM (≈ 59.5 µg/mL)
MIC [4]: 40 µM (≈ 59.5 µg/mL)
MIC [5]: ≥ 40 µM

Structure (SMILES): CC[C@H](C)[C@H](NC(=O)[C@H](CCCN=C(N)N)NC(=O)[C@H](CCCN=C(N)N)NC(=O)[C@@H]1CCCN1C(=O)[C@H](CCCN=C(N)N)NC(=O)[C@H](CCCN=C(N)N)NC(=O)[C@@H]1CCCN1C(=O)[C@H](CCCN=C(N)N)NC(=O)[C@@H]1CCCN1C(=O)[C@H](CC(C)C)NC(=O)[C@H](Cc1ccc(O)cc1)NC(=O)[C@@H]1CCCN1C(=O)[C@@H]1CCCN1C(=O)[C@H](CCCCN)NC(=O)[C@H](CC(=O)O)NC(=O)[C@@H](N)C(C)C)C(=O)N[C@@H](Cc1ccc(O)cc1)C(=O)N[C@@H](CC(N)=O)C(=O)N[C@@H](CCCN=C(N)N)C(N)=O [VDKPPYLPRPRRPRRIYNR]
MIC [11]: 1.02 µM (≈ 2.5 µg/mL)
MIC [12]: 13.1 µM (≈ 32 µg/mL)
MIC [13]: 52.2 µM (≈ 128 µg/mL)

Structure (SMILES): CC(C)C[C@H](NC(=O)[C@H](Cc1ccc(O)cc1)NC(=O)[C@@H]1CCCN1C(=O)[C@@H]1CCCN1C(=O)[C@H](CCCCN)NC(=O)[C@H](CCCN=C(N)N)NC(=O)[C@@H](N)C(C)C)C(=O)N1CCC[C@H]1C(=O)N[C@@H](CCCN=C(N)N)C(=O)N1CCC[C@H]1C(=O)N[C@@H](CCCN=C(N)N)C(=O)N[C@@H](Cc1c[nH]c2ccccc12)C(=O)N1CCC[C@H]1C(=O)N[C@@H](CCCN=C(N)N)C(=O)N[C@@H](CCCN=C(N)N)C(=O)N[C@@H](Cc1ccccc1)C(=O)N[C@@H](Cc1ccc(O)cc1)C(=O)N[C@@H](CC(N)=O)C(=O)N[C@@H](CCCN=C(N)N)C(N)=O [VRKPPYLPRPRWPRRFYNR]
MIC [11]: 0.979 µM (≈ 2.5 µg/mL)
MIC [12]: 0.391 µM (≈ 1 µg/mL)
MIC [13]: 3.13 µM (≈ 8 µg/mL)

Further lines, results first:

MIC [6]: 25 µM (≈ 44.8 µg/mL)
Structure (SMILES): CC(C)C[C@H](NC(=O)[C@H](Cc1ccc(O)cc1)NC(=O)[C@H](Cc1ccc(O)cc1)NC(=O)CNC(=O)[C@H](Cc1c[nH]c2ccccc12)NC(=O)[C@H](CO)NC(=O)[C@H](CO)NC(=O)[C@H](Cc1c[nH]c2ccccc12)NC(=O)[C@H](CC(C)C)NC(=O)[C@H](CCCCN)NC(=O)[C@@H](NC(=O)[C@@H](NC(=O)[C@H](CC(C)C)NC(=O)[C@@H](N)CC(=O)O)[C@@H](C)O)[C@@H](C)O)C(=O)NCC(=O)O [DLTTKLWSSWGYYLG]

MIC [2]: 1.63 µM (≈ 4 µg/mL)
MIC [7]: 3.27 µM (≈ 7.99 µg/mL)
Structure (SMILES): CC[C@H](C)[C@H](NC(=O)[C@@H](NC(=O)[C@@H]1CCCN1C(=O)[C@@H](NC(=O)[C@@H]1CCCN1C(=O)[C@H](CCCCN)NC(=O)[C@H](CCCCN)NC(=O)[C@H](CO)NC(=O)CN)C(C)C)[C@@H](C)CC)C(=O)N[C@@H](Cc1ccc(O)cc1)C(=O)N[C@H]1CSSC[C@@H](C(=O)N[C@@H](CCC(N)=O)C(=O)N[C@@H](CCCN=C(N)N)C(=O)N[C@@H](CCSC)C(=O)O)NC(=O)[C@H](CCCCN)NC(=O)CNC(=O)[C@H]([C@@H](C)O)NC(=O)[C@H](CCCN=C(N)N)NC(=O)[C@H](CCCN=C(N)N)NC(=O)[C@H](CCC(N)=O)NC1=O [GSKKPVPIIYCQRRTGKCQRM]

MIC [8]: 6.1 µM (≈ 11.9 µg/mL)
MIC [9]: 12.2 µM (≈ 23.8 µg/mL)
MIC [10]: 1.5 µM (≈ 2.92 µg/mL)
Structure (SMILES): CC(C)C[C@H](NC(=O)[C@H](CC(C)C)NC(=O)[C@H](C)NC(=O)[C@H](CCCCN)NC(=O)[C@H](C)NC(=O)[C@H](C)NC(=O)[C@H](C)NC(=O)[C@H](CC(C)C)NC(=O)[C@H](Cc1c[nH]c2ccccc12)NC(=O)[C@H](CCCCN)NC(=O)[C@H](C)NC(=O)[C@H](CC(C)C)NC(=O)[C@H](CC(C)C)NC(=O)[C@H](CCCCN)NC(=O)[C@H](CCCCN)NC(=O)[C@H](CC(C)C)NC(=O)[C@H](C)NC(=O)[C@@H](N)CCCCN)C(N)=O [KALKKLLAKWLAAAKALL]

MIC [8]: 7.78 µM (≈ 14.5 µg/mL)
MIC [9]: 45 µM (≈ 83.9 µg/mL)
MIC [10]: 45 µM (≈ 83.9 µg/mL)
Structure (SMILES): CC(C)C[C@H](NC(=O)[C@H](C)NC(=O)[C@H](CC(C)C)NC(=O)[C@@H](N)CCCCN)C(=O)N[C@@H](CCCCN)C(=O)N[C@@H](C)C(=O)N[C@@H](C)C(=O)N[C@@H](CC(C)C)C(=O)N[C@@H](CCCCN)C(=O)N[C@@H](C)C(=O)N[C@@H](Cc1c[nH]c2ccccc12)C(=O)N[C@@H](CCCCN)C(=O)N[C@@H](C)C(=O)N[C@@H](C)C(=O)N[C@@H](C)C(=O)N[C@@H](CCCCN)C(=O)N[C@@H](CC(C)C)C(=O)N[C@@H](C)C(N)=O [KLALKAALKAWKAAAKLA]

MIC [8]: 3.8 µM (≈ 11.5 µg/mL)
MIC [10]: 20 µM (≈ 60.4 µg/mL)
Structure (SMILES): CC[C@H](C)[C@H](NC(=O)[C@H](Cc1c[nH]c2ccccc12)NC(=O)[C@H](CCCCN)NC(=O)[C@@H](NC(=O)[C@H](CC(C)C)NC(=O)[C@H](CCCCN)NC(=O)CNC(=O)[C@@H](NC(=O)[C@@H](NC(=O)[C@H](CO)NC(=O)[C@@H](NC(=O)[C@@H](NC(=O)[C@H](CCCCN)NC(=O)[C@H](CCC(N)=O)NC(=O)[C@H](C)NC(=O)[C@@H](N)CCSC)[C@@H](C)CC)[C@@H](C)CC)[C@@H](C)O)[C@@H](C)CC)C(C)C)C(=O)N[C@H](C(=O)N[C@@H](CCCCN)C(=O)N[C@H](C(=O)N[C@H](C(=O)N[C@@H](CC(N)=O)C(=O)N[C@@H](CCCCN)C(=O)N[C@@H](Cc1ccccc1)C(=O)N[C@H](C(=O)N[C@@H](CCCCN)C(=O)N[C@@H](CCCCN)C(=O)O)[C@@H](C)O)C(C)C)[C@@H](C)O)[C@@H](C)CC [MAQKIISTIGKLVKWIIKTVNKFTKK]

MIC [11]: 2.04 µM (≈ 5 µg/mL)
MIC [12]: 13 µM (≈ 32 µg/mL)
MIC [13]: 52.1 µM (≈ 128 µg/mL)
Structure (SMILES): CC[C@H](C)[C@H](NC(=O)[C@H](CCCN=C(N)N)NC(=O)[C@H](CCCN=C(N)N)NC(=O)[C@@H]1CCCN1C(=O)[C@H](Cc1ccc(O)cc1)NC(=O)[C@H](CCCN=C(N)N)NC(=O)[C@@H]1CCCN1C(=O)[C@H](CCCN=C(N)N)NC(=O)[C@@H]1CCCN1C(=O)[C@H](CC(C)C)NC(=O)[C@H](Cc1ccc(O)cc1)NC(=O)[C@@H]1CCCN1C(=O)[C@@H]1CCCN1C(=O)[C@H](CCCCN)NC(=O)[C@H](CC(=O)O)NC(=O)[C@@H](N)C(C)C)C(=O)N[C@@H](Cc1ccc(O)cc1)C(=O)N[C@@H](CC(N)=O)C(=O)N[C@@H](CCCN=C(N)N)C(N)=O [VDKPPYLPRPRYPRRIYNR]
